Here are results for one compound from patent US20230295580A1, “SPHEROID GENERATOR, SPHEROID CULTURE KIT, AND SPHEROID CULTURE METHOD” (RESEARCH AND BUSINESS FOUNDATION SUNGKYUNKWAN UNIVERSITY, priority 2020, published 2023).

The subject of the assay is cancer cells of the spheroid. Briefly: Spheroid culture with anticancer substance injected through sub-injection part; live/dead cancer cell viability. The assay is classed as cell-based. Conditions: spheroid formed for 12 to 36 hours, then anticancer substance for 12 to 36 hours; increasing injected volume of TMZ; Dead/Live/Merge images, microscope. Here is the method:
Referring to FIG. 11 to FIG. 13, a spheroid generator 10 in which the size of a sub-injection part 18 is increased from one side to the other side of a culture plate 120 is disposed (S11). In this case, main injection parts 14 having the same size are formed in all of the spheroid generators 10.
A cancer cell solution 21 is prepared (S12). That is, the cancer cell solution 21 is prepared by mixing a plurality of cancer cells with a culture medium 24.
The cancer cell solution 21 is injected into the main injection parts 14 of the plurality of spheroid generators 10 (S13). In this case, since main injection parts 14 having the same size are formed in all of the spheroid generators 10, the same amount of the cancer cell solution 21 is injected into all of the main injection parts 14.
As the cancer cells of the cancer cell solution 21 are cultured in the plurality of spheroid generators 10, a spheroid 25 is formed (S14). In this case, the step of forming a spheroid 25 as the cancer cells of the cancer cell solution 21 are cultured in the plurality of spheroid generators 10 is performed for 12 to 36 hours.
An anticancer substance 23 is injected into a sub-injection part 18 of the plurality of spheroid generators 10 (S15). […]

With `Cn1nnc2c(C(N)=O)ncn2c1=O` [TMZ], the “relative viability of cancer cells” value is recorded as “decreases”.
